According to patent US20260209705A1, “ENGINEERED NATURAL KILLER CELLS AND RELATED METHODS” (ASTELLAS PHARMA INC., priority 2022, published 2026):

T1: claudin 6 (CLDN6) (UniProt P56747)
T1 sequence (looked up): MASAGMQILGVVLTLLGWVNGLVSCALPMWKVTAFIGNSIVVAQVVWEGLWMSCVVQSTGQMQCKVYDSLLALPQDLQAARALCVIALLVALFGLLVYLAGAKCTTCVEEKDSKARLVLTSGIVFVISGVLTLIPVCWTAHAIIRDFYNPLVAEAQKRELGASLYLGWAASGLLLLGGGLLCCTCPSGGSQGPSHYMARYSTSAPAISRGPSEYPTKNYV


Experiments:
[1] = system: human PSC-derived engineered NK cells; test: effect of UM171 on NK differentiation (Step 2); assay type: cell-based; conditions: 35 nM UM171 versus no UM171
From the text: FIGS. 2A-2C are bar graphs illustrating the cell yield (FIG. 2A), percentage of CD56+CD45^+ cells (FIG. 2B), and cell viability (FIG. 2C) resulting from the method of producing human PSC-derived engineered NK cells (FcR-UDC I-NK cells) described herein.
Parental and engineered UDC PSCs (collectively, “PSCs”) were thawed, expanded, and cultured in mTeSR™ (STEMCELL Technologies, Cambridge, MA) feeder-free, animal component-free media for up to seven days on vitronectin. The PSCs were dissociated into single cells and transferred into microwell plates and cultured in STEMdiff™ APEL™2 and Gibco® PFHM-II media (STEMCELL Technologies, Cambridge, MA; ThermoFisher Scientific, Waltham, MA) for fourteen days to differentiate into precursor cells (via embryoid bodies) capable of differentiating to hematopoietic cell types, endothelial cell types, and/or mesodermal derivatives. The media was supplemented with BMP4 (20 ng/ml), VEGF (20 ng/ml), and SCF (40 ng/ml). Half media changes were performed every other day starting on day 3. The embryoid bodies were replated on DLL4/Retronectin-coated T75 flasks to differentiate into NK cells. The embryoid bodies were cultured under feeder free conditions in differentiation media comprising SCF (20 ng/ml), IL-7 (20 ng/ml), IL-15 (10 ng/ml), Flt3L (10 ng/mL), IL-3 ([…]) and 35 nM UM171 for 21 days in modified DMEM/F12. […]

[2] = biological target: T1, claudin 6 (CLDN6); test: cell-based or functional assay
[3] = system: Raji (Burkitt's lymphoma) cells; test: Raji i.p. tumor model, study of FIG. 23 (Table 2); assay type: in vivo, NSG mice; conditions: single agent alone, compared to untreated
Procedure: FIG. 23 is a graphic of an efficacy study of FcR-UDC I-NK cells plus Rituximab in a Raji i.p. tumor model. NSG mice were irradiated and injected (i.p.) with Raji tumor cells (3×10^5). At day 4, FcR-UDC I-NK cells or PB-NK cells (each 5×10^6) with or without Rituximab (300 μg) was administered. At day 7, an additional dose of Rituximab (300 μg) was administered. Imaging/monitoring of the NSG mice occur at indicated time points through day 120.
FIGS. 24A-24C illustrate (FIG. 24A) a survival curve and (FIGS. 24B-24C) tumor burden following the efficacy study of FIG. 23. […] In FIGS. 24B-24C, FcR-UDC I-NK cells plus Rituximab and PB-NK plus Rituximab provided a durable response in delaying tumor onset through day 60 in 50% of the mice.
The efficacy of the UDC-NK cells against tumors in vivo was studied in a Raji intraperitoneal (i.p.) tumor model.
In FIG. 23, NSG mice were irradiated and injected i.p. with Raji (Burkitt's lymphoma) cells (3×10^5 cells). Raji cells are resistant to NK cells in the absence of an anti-CD20 antibody. At day four, 5×10^6 FcR-UDC I-NK cells and/or Rituximab (300 μg) was administered to the NSG mice. At day 7, a second dose of Rituximab (300 μg) was administered. […] The NSG mice were imaged and assessed for survival, BLI (tumor burden), and body weight and other health conditions at various days through day 121. […]

Row | EC50 of ADCC (specific lysis of PA-1 cells by FcR-UDC I-NK cells, four-hour flow-based assay, antibody titrated) [2] [ng/mL] | Molecule | other results
1 | – | Br.Br.Cn1nnc(-c2ccc3c(c2)[nH]c2nc(Cc4ccccc4)nc(N[C@H]4CC[C@H](N)CC4)c23)n1.O.O [UM171, (1r,4r)-N1-(2-benzyl-7-(2-methyl-2H-tetrazol-5-yl)-9H-pyrimidol [4,5-b]indol-4-yl)cyclohexane-1,4-diamine dihydrobromide dihydrate] | UDC-NK cell yield during NK differentiation [1]: improved UDC-NK cell yield
2 | 4.32 | ASP1893 mAb (antibody) | –
3 | – | Rituximab | mean survival [3]: increased mean survival
4 | 8.49 | ASP1650 (antibody, from another filing, V domains shown) VH: EVQLQQSGPELVKPGASMKISCKASGYSFTGYTMNWVKQSHGKNLEWIGLINPYNGGTIYNQKFKGKATLTVDKSSSTAYMELLSLTSEDSAVYYCARDYGFVLDYWGQGTTLTVSS VL: IVLTQSPAIMSASPGEKVTITCSASSSVSYLHWFQQKPGTSPKLWVYSTSNLPSGVPARFGGSGSGTSYSLTISRMEAEDAATYYCQQRSIYPPWTFGGGTKLEIKR | –
